# Data reported in US20190160058A1, “METHODS OF TREATMENT WITH SELECTIVE CB2 RECEPTOR AGONISTS” (Arena Pharmaceuticals, Inc., priority 2016, published 2019).
# Entries after “also recorded” stand apart in the source; their conditions may differ.
# Experiments:
# [1] = test system: rats following ligation of spinal nerves; details: cited from earlier work
# [2] = test system: models of inflammatory pain in rodents; details: systemic delivery; cited from earlier work
# healthy human subjects [3] = test: phase 1b multiple ascending dose clinical trial; format: in vivo
# Experimental: A phase 1b randomized, double-blind, placebo-controlled multiple ascending dose clinical trial was performed in 36 healthy human subjects to assess the safety, tolerability, and pharmacokinetics of APD371 (Compound B). Doses of 50 mg three times daily (TID), 100 mg TID, and 200 mg TID were administered for 10 days. Subjects were in the clinic for approximately 17 days (referred to as Day −2 to Day 15). Study medication (APD371 or placebo) was administered TID on Days 1-10, and once on Day 11. Each cohort included 12 human subjects, nine of whom were administered APD371 and three of whom were administered placebo.
# (§1) Vital signs were measured for blood pressure and heart rate in the supine position after resting for five minutes. 12-lead electrocardiograms were used to measure RR, PR, QRS, QT, QTc, QTcB, and QTcF in the recumbent position after resting for 10 minutes. 5-lead electrocardiograms were used for continuous telemetry, with measurements taken during the last five minutes of a resting period of 14 minutes±1 minute in the supine position. Baseline measurements were taken prior to dosing.
# CB2 receptor [4] = target: T1, CB2 receptor (Homo sapiens, UniProt P34972); test: CB2 receptor agonism; format: cell-based
# Text: Other CB2 receptor agonist compounds can be identified e.g., using the Homogeneous Time-Resolved Fluorescence (HTRF®) Assay for direct cAMP measurement (Gabriel et al., ASSAY and Drug Development Technologies, 1:291-303, 2003) (see, e.g., Example 2 of WO2011/025541). Compounds can be screened for agonism of the CB2 receptor (e.g., human CB2 receptor) using the HTRF® assay for direct cAMP measurement (assay kit sold by Cisbio-US, Inc., Bedford, Mass.; Catalog #62AM4PEC) in recombinant CHO-K1 cells stably transfected with the CB2 receptor. […] The specific signal (i.e., fluorescence resonance energy transfer, FRET) is inversely proportional to the concentration of unlabeled cAMP in the standard or sample. An agonist of the CB2 receptor is detected in the HTRF® assay for direct cAMP measurement when a compound decreases cAMP concentration. […]
# CB2 receptor agonist compounds can also be identified using the DiscoveRx PathHunter β-arrestin assay which measures the β-arrestin binding to the CB2 receptor upon its activation (see, e.g., Example 3 of WO2011/025541). […] Binding of β-arrestin to the activated GPCR causes the complementation of the two enzyme fragments, forming an active β-galactosidase enzyme which can be measured using the chemiluminescent PathHunter Flash Detection Kit (DiscoveRx, Fremont, Calif.: catalog #93-0001).
# healthy human subjects [5] = test: phase 1a single ascending dose clinical trial; format: in vivo
# Experimental: A phase 1a randomized, double-blind, placebo-controlled single ascending dose clinical trial was performed in 56 healthy human subjects to assess the safety, tolerability, and pharmacokinetics of APD371 (Compound B). Doses of 10 mg, 20 mg, 30 mg, 60 mg, 120 mg, 250 mg, and 400 mg were administered. Subjects were in the clinic for approximately 9 days (referred to as Day −2 to Day 7). Study medication (APD371 or placebo) was administered on Day 1. Each cohort included eight human subjects, six of whom were administered APD371 and two of whom were administered placebo.
# as §1
# CB2 receptor [6] = target: T1, CB2 receptor; test: internalization of the CB2 receptor in a cell; format: cell-based
# Text: In some embodiments, the selective CB2 receptor agonist increases internalization of the CB2 receptor in a cell to at least 75%, at least 80%, at least 85%, at least 90%, at least 95%, at least 96%, at least 97%, at least 98%, or at least about 99% the level of internalization that would occur if the cell were contacted with CP55,940. In some embodiments, the CB2 receptor agonist that increases internalization of the CB2 receptor to at least 90% of CP55,940 is selected from: Compound B, Compound E, Compound G, and Compound H. CP55,940 has the following chemical structure: […]
# (§2) Receptor internalization can be measured using a number of methods, including but not limited to measuring a loss of labeled receptor from the cell surface (e.g., using flow cytometry) measuring the appearance of receptors internalized in the cell (e.g., in characteristic punctate intracellular vesicles), and/or measuring the return of receptors recycled to the cell surface. For example, the number, density, and/or staining intensity of granules in the cell can be quantified. Receptor internalization can be measured using any appropriate method known to those of skill in the art. […]
# [7] = test system: osteoarthritis pain model; test: osteoarthritis pain model; format: in vivo
# [8] = test system: human CB2 receptor versus the human CB1 receptor; test: selectivity for the human CB2 receptor versus the human CB1 receptor
# Experimental: In some embodiments, an agonist compound that is used in the methods described herein has selectivity for the CB2 Receptor. In some embodiments, selectivity refers to the relative in vitro potency of a compound for the CB2 receptor and another receptor. For example, in some embodiments, selectivity refers to the relative in vitro potency of a compound for the CB2 receptor versus the CB1 receptor. In some embodiments, in vitro potency is measured using a second messenger assay. In some embodiments, in vitro potency is measured using a cAMP assay. In some embodiments, selectivity is determined by comparing data generated using a β-arrestin assay. In some embodiments, selectivity is determined by comparing data generated from a GTP-yS binding assay. In some embodiments, selectivity is determined by comparing data generated from a reporter gene assay. In some embodiments, selectivity is determined by comparing data generated for a biomarker. In some embodiments, in vitro potency is quantified as EC50. In some embodiments, selectivity refers to the relative binding affinity of an agonist for the CB2 receptor and another receptor. In some embodiments, binding affinity is quantified as Ki.
# [9] = test system: painful peripheral diabetic neuropathy model; test: painful peripheral diabetic neuropathy model; details: in vivo
# rat CB2 receptor = rat CB2 receptor (Rattus norvegicus, UniProt Q9QZN9); test: CB2 receptor internalization efficacy relative to CP55,940; format: cell-based
# Text: (§3) In certain instances, the CB2 receptor agonist compounds identified using the HTRF® assay, the PathHunter-arrestin assay, and the radioligand binding assay can be tested for CB2 receptor internalization to select those agonists that induce robust internalization of the receptor in order to maintain a sufficient level of signaling for sustained in vivo efficacy. In certain embodiments, such agonists are preferred in the methods described herein.
# as §2
# CB2 receptor [10] = target: T1, CB2 receptor; test: as above; format: cell-based
# Text: as §3, §2
# [11] = test system: paclitaxel-induced neuropathic pain model; test: paclitaxel-induced neuropathic pain model; details: in vivo
# preclinical animal model = preclinical animal model studies, cardiovascular effects; format: in vivo
# [12] = test system: human vagus nerve preparations; details: in vitro; cited from earlier work
# [13] = test system: guinea pig vagus nerve preparations; details: in vitro; cited from earlier work
# RPE cells = details: cited from earlier work
# [14] = test system: bovine nasal cartilage explants; details: in vitro; cited from earlier work
# human skin = details: topical administration; cited from earlier work
# ApoE knockout mice = details: cited from earlier work
# EAE mouse model = details: in vivo; cited from earlier work
# [15] = test system: mouse model for allergic contact dermatitis; details: subcutaneous injection; cited from earlier work
# [16] = 50, 100, 200 mg TID for 10 days
# T1 sequence (P34972 whole entry): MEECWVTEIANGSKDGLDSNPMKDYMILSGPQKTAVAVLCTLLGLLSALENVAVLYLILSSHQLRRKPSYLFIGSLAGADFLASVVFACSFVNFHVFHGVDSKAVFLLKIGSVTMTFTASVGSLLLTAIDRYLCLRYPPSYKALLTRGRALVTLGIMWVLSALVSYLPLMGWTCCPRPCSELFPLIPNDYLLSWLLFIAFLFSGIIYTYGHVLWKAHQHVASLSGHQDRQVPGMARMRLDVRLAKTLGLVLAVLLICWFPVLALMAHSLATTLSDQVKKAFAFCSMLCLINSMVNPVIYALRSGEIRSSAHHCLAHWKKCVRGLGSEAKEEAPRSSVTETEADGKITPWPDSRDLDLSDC
# Chain of rat CB2 receptor (Q9QZN9 whole entry): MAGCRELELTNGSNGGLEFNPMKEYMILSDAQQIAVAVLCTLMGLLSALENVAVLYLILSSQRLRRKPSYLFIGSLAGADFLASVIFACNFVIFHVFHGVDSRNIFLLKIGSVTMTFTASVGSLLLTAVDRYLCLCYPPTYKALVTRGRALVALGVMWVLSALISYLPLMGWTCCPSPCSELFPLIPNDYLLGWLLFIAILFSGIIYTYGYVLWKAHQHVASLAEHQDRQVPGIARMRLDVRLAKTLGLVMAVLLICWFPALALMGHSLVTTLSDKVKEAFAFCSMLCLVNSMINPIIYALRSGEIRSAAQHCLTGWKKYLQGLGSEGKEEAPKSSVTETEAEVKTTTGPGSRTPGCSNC
compound,measurement,setting,value
COc1ccc(C(=O)c2c(C)n(CCN3CCOCC3)c3cc(I)ccc23)cc1 [AM630],effect on the AM1241 reversal of hypersensitivity,"[1]; rat, in vivo",inhibited by treatment with the CB2-selective antagonist AM630
CN1CCCCC1Cn1cc(C(=O)c2cc([N+](=O)[O-])ccc2I)c2ccccc21 (centres unmarked) [AM1241],hyperalgesia,[2],suppresses hyperalgesia
same,tactile and thermal hypersensitivity,[1]; local (subcutaneous) or systemic administration,reverses tactile and thermal hypersensitivity
"CC(C)(C)[C@@H](CO)NC(=O)c1nn(-c2c[n+]([O-])ccn2)c2c1C[C@@H]1C[C@H]21 [APD371, (1aS,5aS)-2-(4-Oxy-pyrazin-2-yl)-1a,2,5,5a-tetrahydro-1H-2,3-diaza-cyclopropa[a]pentalene-4-carboxylic Acid ((S)-1-Hydroxymethyl-2,2-dimethyl-propyl)-amide]",exposure,healthy human subjects [3]; [16],Dose-responsive exposure was observed
same,most common adverse events,healthy human subjects [3]; [16],headache and nausea
same,serious adverse events,healthy human subjects [3]; [16],no serious adverse events reported
same,severity of adverse events,healthy human subjects [3]; [16],mild
same,tolerability,healthy human subjects [3]; [16],well tolerated with multiple dosing
same,drug levels relative to those needed to stimulate the CB2 receptor,healthy human subjects [3]; all doses,well above those needed to stimulate the CB2 receptor
same,discontinuations,healthy human subjects [3]; high-dose group,one discontinuation in the high-dose group due to an adverse event of mild thirst and somnolence
same,change in blood pressure,healthy human subjects [3]; multiple ascending dose,asymptomatic reductions
same,change in heart rate,healthy human subjects [3]; multiple ascending dose,asymptomatic reductions
same,agonist efficacy at the CB2 receptor,CB2 receptor [4],full CB2 receptor agonist
same,systolic and diastolic blood pressure compared to baseline,healthy human subjects [5]; single ascending dose,Variations were also seen
same,mean change in heart rate compared to baseline,"healthy human subjects [5]; single ascending dose, highest doses",increase in heart rate was seen at the highest doses; also recorded: asymptomatic mean increase in heart rate
same,exposure,healthy human subjects [5]; single doses 10 mg to 400 mg,Dose-responsive exposure was observed
same,tolerability,healthy human subjects [5]; single doses 10 mg to 400 mg,well tolerated
same,internalization of the CB2 receptor into cells,CB2 receptor [6],high level of internalization
same,efficacy in model of osteoarthritis pain,[7]; in vivo,sustained efficacy
same,duration of in vivo efficacy following dosing,[7]; osteoarthritis pain model,maintained in vivo efficacy for four hours following dosing
same,plasma concentrations,"[7]; osteoarthritis pain model, following dosing",rapidly declining plasma concentrations
same,selectivity for the human CB2 receptor versus the human CB1 receptor,[8],"> 1,000 fold"
same,efficacy in model of painful peripheral diabetic neuropathy,[9],sustained efficacy
same,"receptor internalization efficacy relative to CP55,940",rat CB2 receptor,105%
same,"receptor internalization efficacy relative to CP55,940",CB2 receptor [10],96%
same,efficacy in model of paclitaxel-induced neuropathic pain,[11],sustained efficacy
same,cardiovascular effects,preclinical animal model,Cardiovascular effects were not seen
"CCCCCCC(C)(C)c1ccc([C@@H]2C[C@H](O)CC[C@H]2CCCO)c(O)c1 [CP55,940]","capsaicin-, PGE2-, and hypertonic saline-induced depolarization",[12],"reduces capsaicin-, PGE2-, and hypertonic saline-induced depolarization"
same,"capsaicin-, PGE2-, and hypertonic saline-induced depolarization",[13],"reduces capsaicin-, PGE2-, and hypertonic saline-induced depolarization"
same,protection from oxidative damage,RPE cells,significantly protects RPE cells from oxidative damage
COc1ccc2c(c1)c(CCN1CCOCC1)c(C)n2C(=O)c1cccc(Cl)c1Cl [GW405833],hypersensitivity to mechanical stimuli,[1]; administered systemically,significantly reverses hypersensitivity to mechanical stimuli
CCCCCCC(C)(C)c1cc(O)c2c(c1)OC(C)(C)[C@@H]1CC=C(CO)C[C@@H]21 [HU-210],IL-1alpha-stimulated proteoglycan and collagen degradation,[14],significantly inhibit
same,histamine-induced responses,human skin,reduces these histamine-induced responses
CCCCCc1cc(O)c2c(c1)OC(C)(C)[C@@H]1CCC(C)=C[C@@H]21 [THC],progression of atherosclerosis,"ApoE knockout mice; mouse, in vivo",reduces the progression of atherosclerosis
same,severity of clinical disease,EAE mouse model,significantly inhibits the severity of clinical disease
same,cutaneous inflammation and pruritus (itch),[15],reduces cutaneous inflammation and the pruritus (itch)
SR144528,blockade of the THC effect on atherosclerosis,ApoE knockout mice; in vitro and in vivo,completely blocks this effect
same,blockade of the WIN 55212-2 effect on leukocyte rolling and adhesion,EAE mouse model,blocked by the CB2-selective antagonist SR144528
